Laboratory results as given in patent publication US7084158B2, “Substituted propargylamines” (Bayer Cropscience S.A., priority 2001, dated 2006).

Columns and labels:
Type in all cases: in vivo
Design in all cases: key: compounds were considered to be active when, at a concentration of 500 ppm or less, they had an activity on the harmful organisms of 50% or more
Nilaparvata lugens = assay: Example A: rice leaf dip, leafhopper larvae mortality; conditions: 500 ppm or less; L3 larvae on dipped rice plants; after 6 days
Method: The leaves of 12 rice plants having a stem length of 8 cm were dipped for 5 seconds into an aqueous solution of the formulated compound to be examined. After the solution had run off, the rice plants treated in this manner were placed into a Petri dish and populated with about 20 larvae (L3 stage) of the rice leafhopper species Nilaparvata lugens. The Petri dish was closed and then stored in a climatized chamber (16 hours of light/day, 25° C., 40–60% relative atmospheric humidity). After 6 days of storage, the mortality among the leafhopper larvae was determined. The compounds of the following examples were active: Nos. 29, 32, 42, 43, 51, 70, 84, 1002, 1004, 1005, 1040, 180, 184, 193, 197, 203, 209, 1059, 264, 265, 1066.

Heliothis virescens = assay: Example B: tobacco budworm eggs on filter paper/insect diet, mortality; conditions: 500 ppm or less; 24-hour-old eggs dipped, diet treated; after 6 days
[1] = system: Diabrotica undecimpunctata; assay: Example C: corn rootworm eggs with maize corn, mortality; conditions: 500 ppm or less; 4-5-day-old eggs; after 6 days
Meloidogyne incognita = assay: Example H: root gall nematode larvae immobilization (contact activity); conditions: 500 ppm or less; 2nd stage larvae; 6 days permanent exposure
Method: In a glass vessel, an aqueous solution of the formulated compound to be examined was added to about 3000 freshly hatched active (mobile) larvae (2nd development stage) of the root gall nematode (Meloidogyne incognita) (final volume 20 ml). After 6 days of permanent exposure of the nematode larvae, the percentage of the individual larvae immobilized by the activity of the compound was determined in comparison to the untreated controls (contact activity). The compounds of the following examples were active: 39, 52, 159, 161, 162, 163, 164, 165, 1045, 1046, 1047, 179, 183, 187, 1048, 298, 206, 208, 227, 230, 1061, 237, 238, 245, 250, 255, 256, 260, 268, 269, 274, 275, 288, 290.

Aedes aegypti = assay: Example AG: microtiter plate, yellow fever mosquito larvicidal activity; conditions: 500 ppm or less, after 3 days

Row | SMILES | mortality among the leafhopper larvae (Nilaparvata lugens) | percentage of larvae immobilized (contact activity) (Meloidogyne incognita) | further results
1 | CCC1CCCN(CC#Cc2cc(C(F)(F)F)cc(C(F)(F)F)c2)C1 (stereo not shown) [Example 32] | active | – | effect on the eggs and hatched larvae (mortality) (Heliothis virescens): active; effect on the eggs and hatched larvae (mortality) [1]: active
2 | CC1CCCCN1CC#Cc1cc(C(F)(F)F)cc(C(F)(F)F)c1 (stereo not shown) [Example 39] | – | active | –
3 | FC(F)(F)c1cc(C#CCN2CCCC3CCCCC32)cc(C(F)(F)F)c1 (stereo not shown) [Example 42] | active | – | –
4 | CN1CCN(CC#Cc2cc(C(F)(F)F)cc(C(F)(F)F)c2)CC1 [Example 51] | active | – | –
5 | CN1CCN(CC#Cc2ccc(C(F)(F)F)cc2)CC1 [Example 52] | – | active | –
6 | CC1(C)CCCC(C)(C)N1CC#Cc1ccccc1 [Example 84] | active | – | –
7 | Cc1nc(C#CCN2CCC(C)CC2)cc(C(F)(F)F)n1 [Example 161] | – | active | –
8 | CSc1nc(C#CCN2CCCCCC2)cc(C(F)(F)F)n1 [Example 164] | – | active | –
9 | CC1CCN(CC#Cc2nc(C(F)(F)F)ccc2C(F)(F)F)CC1 [Example 165] | – | active | –
10 | Cc1ccc([N+](=O)[O-])cc1-c1ccc(C#CCN2CCC(C)CC2)cc1 [Example 179] | – | active | effect on the eggs and hatched larvae (mortality) (Heliothis virescens): active
11 | CC1CCN(CC#Cc2ccc(-c3cccc(Cl)c3Cl)cc2)CC1 [Example 180] | active | – | effect on the eggs and hatched larvae (mortality) (Heliothis virescens): active
12 | Cc1ccccc1-c1ccc(C#CCN2CCC(C)CC2)cc1 [Example 183] | – | active | effect on the eggs and hatched larvae (mortality) (Heliothis virescens): active
13 | CC1CCN(CC#Cc2ccc(-c3cccnc3Cl)cc2)CC1 [Example 187] | – | active | –
14 | CC1CCN(CC#Cc2cc(C(F)(F)F)ccn2)CC1 [Example 203] | active | – | effect on the eggs and hatched larvae (mortality) (Heliothis virescens): active; effect on the eggs and hatched larvae (mortality) [1]: active
15 | CC1CCN(CC#Cc2ccc([N+](=O)[O-])s2)CC1 [Example 208] | – | active | –
16 | CC1CCN(CC#Cc2cccc(-c3nccs3)c2)CC1 [Example 227] | – | active | –
17 | CC1CCN(CC#Cc2ccc(-c3ccc(F)cc3)s2)CC1 [Example 230] | – | active | effect on the eggs and hatched larvae (mortality) (Heliothis virescens): active
18 | Cc1cc(C#CCN2CCC(C)CC2)sc1-c1ccc(-c2ccccc2)cc1 [Example 237] | – | active | –
19 | Cc1cc(C#CCN2CCC(C)CC2)sc1-c1ccsc1 [Example 238] | – | active | –
20 | CCc1ccc(C#CCN2CCC(C)CC2)cc1C(F)(F)F [Example 264] | active | – | larvicidal activity (Aedes aegypti): active
21 | CC1CCN(CC#Cc2ccc(-c3ccc(Cl)cc3Cl)s2)CC1 [Example 274] | – | active | –
22 | CC1CCN(CC#Cc2ccc(C=O)s2)CC1 [Example 298] | – | active | effect on the eggs and hatched larvae (mortality) [1]: active
23 | CC1CCN(CC#Cc2ccc(C(F)(F)F)c(Cl)n2)CC1.Cl [Example 1048] | – | active | effect on the eggs and hatched larvae (mortality) (Heliothis virescens): active
24 | CC1CCN(CC#Cc2ccc(Br)c(C(F)(F)F)c2)CC1.O=C(O)/C=C\C(=O)O [Example 1066] | active | – | effect on the eggs and hatched larvae (mortality) [1]: active; larvicidal activity (Aedes aegypti): active
